Experimental data as given in BindingDB's records for doi:10.7270/Q2TX3CSC (Vanderbilt Screening Center for GPCRs, Ion Channels and …, 2009).

Molecular target: T1, Solute carrier family 12 member 5 (Homo sapiens, UniProt Q9H2X9)
T1 sequence (Q9H2X9 whole entry): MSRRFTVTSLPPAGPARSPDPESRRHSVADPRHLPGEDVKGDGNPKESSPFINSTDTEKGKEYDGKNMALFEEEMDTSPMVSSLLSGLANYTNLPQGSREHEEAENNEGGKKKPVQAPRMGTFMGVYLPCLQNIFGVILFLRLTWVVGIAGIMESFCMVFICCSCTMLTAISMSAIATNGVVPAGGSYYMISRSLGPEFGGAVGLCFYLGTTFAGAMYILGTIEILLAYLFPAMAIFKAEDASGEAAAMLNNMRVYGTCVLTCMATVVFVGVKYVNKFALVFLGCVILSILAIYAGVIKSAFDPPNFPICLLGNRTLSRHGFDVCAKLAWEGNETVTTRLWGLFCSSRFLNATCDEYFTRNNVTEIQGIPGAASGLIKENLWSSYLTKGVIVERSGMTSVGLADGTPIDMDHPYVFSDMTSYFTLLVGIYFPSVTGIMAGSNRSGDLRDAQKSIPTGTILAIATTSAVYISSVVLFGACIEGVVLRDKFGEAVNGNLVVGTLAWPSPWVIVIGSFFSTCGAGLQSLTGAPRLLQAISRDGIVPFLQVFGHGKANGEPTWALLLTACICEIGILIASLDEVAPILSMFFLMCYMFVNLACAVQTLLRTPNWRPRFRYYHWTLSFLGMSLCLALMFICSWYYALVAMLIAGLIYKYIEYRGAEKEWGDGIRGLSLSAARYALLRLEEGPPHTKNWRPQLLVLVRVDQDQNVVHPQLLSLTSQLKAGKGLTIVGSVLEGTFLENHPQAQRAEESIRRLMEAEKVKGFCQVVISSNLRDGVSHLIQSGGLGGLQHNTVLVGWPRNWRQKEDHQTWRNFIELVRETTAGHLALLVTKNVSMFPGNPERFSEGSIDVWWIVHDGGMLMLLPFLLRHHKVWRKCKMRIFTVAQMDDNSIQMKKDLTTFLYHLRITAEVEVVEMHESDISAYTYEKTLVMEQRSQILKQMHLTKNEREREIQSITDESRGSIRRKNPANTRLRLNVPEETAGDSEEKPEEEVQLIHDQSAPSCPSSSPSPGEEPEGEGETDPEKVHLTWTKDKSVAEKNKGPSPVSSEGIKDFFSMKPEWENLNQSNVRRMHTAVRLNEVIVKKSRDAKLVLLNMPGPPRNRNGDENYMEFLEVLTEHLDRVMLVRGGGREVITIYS
Assay: concentration-response of KCC2 transport modulators – cell-based, HEK293 KCC2, FluoZin-2 fluorescence, dose response (AID 1736)

[1] = inactive by the depositor's call

SMILES	EC50 [µM]	EC50 [1] [µM]
O=S1(=O)N=C(N2CCN(Cc3ccccc3)CC2)c2ccccc21 [3-(4-Benzyl-piperazin-1-yl)-benzo[d]isothiazole 1,1-dioxide]	6.74	–
CCCC1=NN2C(=N)/C(=C\c3cc(C)n(-c4cc(C)cc(C)c4)c3C)C(=O)N=C2S1 [MLS000588586]	6.75	–
Cc1csc(NC(=O)CSc2ccc(-c3ccccc3)nn2)n1 [N-(4-methyl-1,3-thiazol-2-yl)-2-(6-phenylpyridazin-3-yl)sulfanyl-ethanamide]	0.249	–
N#Cc1nc(Cc2cccc3ccccc23)oc1N1CCOCC1 [5-(4-morpholinyl)-2-(1-naphthalenylmethyl)-4-oxazolecarbonitrile]	1.32	–
CC(C)NC(=S)NNC1=c2cc(C(C)C)ccc2=NC1=O [SMR000242097]	5.13	–
COC(=O)[C@@H](NC(=O)O[C@@H]1C(=O)c2cc(Br)ccc2O[C@H]1c1cccc(OC)c1)C(C)C [(2S)-2-[[(2S,3S)-6-bromo-4-keto-2-(3-methoxyphenyl)chroman-3-yl]oxycarbonylamino]-3-methyl-butyric acid methyl ester]	–	33.7
CSCCC(=O)N1CCCC(CNC(=O)c2ccc(-c3ccccc3)cc2)C1 (configuration not stated) [MLS000733867]	7.78	–
CC(C)Oc1ccccc1OCCCOc1cccc2cccnc12 [8-[3-(2-isopropoxyphenoxy)propoxy]quinoline]	–	10.5
COCCN1C(=O)/C(=C/c2ccc(OCc3ccc(C(=O)O)cc3)c(OC)c2)S/C1=N/c1ccccc1 [4-[(2-methoxy-4-{[3-(2-methoxyethyl)-4-oxo-2-(phenylimino)-1,3-thiazolidin-5-ylidene]methyl}phenoxy)methyl]benzoic acid]	44.9	–
Cc1ccc(-c2csc(NC(=O)CCNC(=O)c3ccccc3Cl)n2)cc1 [2-chloranyl-N-[3-[[4-(4-methylphenyl)-1,3-thiazol-2-yl]amino]-3-oxidanylidene-propyl]benzamide]	2.49	–
O=C(NC(=S)Nc1ccc(-c2nc3ncccc3o2)cc1)c1ccccc1F [2-fluoranyl-N-[[4-([1,3]oxazolo[4,5-b]pyridin-2-yl)phenyl]carbamothioyl]benzamide]	–	1.8
COc1ccccc1-c1nc(C#N)c(N2CCC(Cc3ccccc3)CC2)o1 [2-(2-methoxyphenyl)-5-[4-(phenylmethyl)-1-piperidinyl]-4-oxazolecarbonitrile]	–	0.733
O=C(NNc1nc(-c2ccccc2)cs1)c1ccccc1 [MLS000547345]	0.024	–
CC(=O)NCC1CCCN(c2nc3nonc3nc2N(C)Cc2ccccc2)C1 (configuration not stated) [MLS000731683]	2.68	–
S=C(NN=Cc1cccc2ccccc12)Nc1cccc(Cl)c1 [1-(3-chlorophenyl)-3-(1-naphthalenylmethylideneamino)thiourea]	11	–
O=C1OC(c2ccc(O)cc2)(c2ccc(O)cc2)c2ccccc21	2.31	–
O=S(=O)(NCc1ccccc1)c1ccc(Cl)c(S(=O)(=O)NCc2ccccc2)c1 [1-N,3-N-dibenzyl-4-chlorobenzene-1,3-disulfonamide]	2.34	–
CC1(CCc2ccccc2)NC(=O)N(Cc2nnc(-c3ccccc3Br)o2)C1=O (configuration not stated) [3-[[5-(2-bromophenyl)-1,3,4-oxadiazol-2-yl]methyl]-5-methyl-5-(2-phenylethyl)imidazolidine-2,4-dione]	14.3	–
O=C(NN1C(=O)/C(=C/c2nc3ccccc3[nH]2)SC1=S)c1ccccc1Cl [N-{5-[1-(1H-Benzoimidazol-2-yl)-meth-(Z)-ylidene]-4-oxo-2-thioxo-thiazolidin-3-yl}-2-chloro-benzamide]	0.0822	–
O=C(NC(=S)NNC(=O)c1cnccn1)c1ccc(Cl)cc1 [4-Chloro-N-[N'-(pyrazine-2-carbonyl)-hydrazinocarbothioyl]-benzamide]	23.3	–
O=C(O)/C=C/c1cn(Cc2ccccc2)nc1-c1ccccc1 [MLS000567315]	3.77	–
O=C(CC(C(=O)N1CCc2ccccc21)n1ccnc1)N1CCc2ccccc2C1 (configuration not stated) [1-(2,3-dihydroindol-1-yl)-4-(3,4-dihydro-1H-isoquinolin-2-yl)-2-(1-imidazolyl)butane-1,4-dione]	1770	–
Cc1ccc(C2=CSC3=NNC4(CCCCC4)NN23)cc1 [SMR000306481]	2.52	–
CCN(CC)S(=O)(=O)c1ccc(NC(=O)CSc2ncnc3ccccc23)cc1 [MLS000393282]	1.1	–
O=C(OCn1ncc(Cl)c(Cl)c1=O)c1ccc(F)cc1 [(4,5-dichloro-6-oxopyridazin-1-yl)methyl 4-fluorobenzoate]	14.1	–
O=C(NCCCn1ncc2ccccc21)c1cc(COc2c(F)cccc2F)on1 [5-[(2,6-difluorophenoxy)methyl]-N-(3-indazol-1-ylpropyl)-1,2-oxazole-3-carboxamide]	–	18.7
O=C(c1ccc(N2CCCCCC2)c([N+](=O)[O-])c1)N1CCc2ccccc21 [1-(4-azepan-1-yl-3-nitrobenzoyl)indoline]	0.373	–
O=C(Cn1nnc2c(cnn2-c2ccccc2)c1=O)N1CCN(c2ccccc2F)CC1 [3-[2-[4-(2-fluorophenyl)-1-piperazinyl]-2-oxoethyl]-7-phenyl-4-pyrazolo[3,4-d]triazinone]	147	–

More lines, now with the values ahead:

EC50 [µM]	EC50 [1] [µM]	SMILES
2.24	–	O=[N+]([O-])c1ccc(CSc2nnc(SCc3ccccc3)s2)cc1 [2-(benzylthio)-5-[(4-nitrobenzyl)thio]-1,3,4-thiadiazole]
–	0.0853	Cc1ccc(Nc2nnc(SCC(=O)c3cc4ccccc4o3)s2)cc1C [1-(1-benzofuran-2-yl)-2-[[5-(3,4-dimethylanilino)-1,3,4-thiadiazol-2-yl]sulfanyl]ethanone]
3.19	–	Cn1c(C(=O)NCCN2CCN(c3ccccc3F)CC2)cc2c(=O)n(C)c3ccccc3c21 [MLS000118132]
3.2	–	CCc1cc(C(=O)N2CCCC(CNC(=O)c3ccc(-c4ccccc4)cc3)C2)no1 (configuration not stated) [MLS000731765]
0.58	–	CN(CC(=O)N1CCN(Cc2ccccc2)CC1)S(=O)(=O)c1cccc2nsnc12 [MLS000674627]
5.95	–	c1ccc(-c2nnc(Sc3ncnc4c3cnn4-c3ccccc3)[nH]2)cc1 [SMR000019566]
51.2	–	Cc1nn(C)c(C)c1C=C1SC(S)=NC1=O [MLS000324943]
5	–	CC(=O)NCCC(=O)N1CCCC(CNC(=O)c2ccc(-c3ccccc3)cc2)C1 (configuration not stated) [MLS000733794]
20.4	–	C=C(C)Cn1c(N2CCC(Cc3ccccc3)CC2)nc2c1c(=O)[nH]c(=O)n2C [3-methyl-7-(2-methylprop-2-enyl)-8-[4-(phenylmethyl)-1-piperidinyl]purine-2,6-dione]
–	8.17	CN(c1ccccc1)c1ccc(/C=C(\CCC(=O)O)c2nc3ccccc3s2)cc1[N+](=O)[O-]
0.92	–	CC1Cc2ccccc2N1C(=O)c1ccc(N2CCCCC2)c([N+](=O)[O-])c1 (configuration not stated) [(2-methyl-2,3-dihydroindol-1-yl)-(3-nitro-4-piperidin-1-yl-phenyl)methanone]
7.15	–	Cc1ccccc1-c1nc(C[S+]([O-])CC(=O)NCc2ccccc2)c(C)o1 (configuration not stated) [2-[[5-methyl-2-(2-methylphenyl)-1,3-oxazol-4-yl]methylsulfinyl]-N-(phenylmethyl)ethanamide]
–	12.1	Cc1ccc(-c2nn(Cc3ccccc3)cc2/C=C/C(=O)O)cc1 [(E)-3-[1-benzyl-3-(4-methylphenyl)pyrazol-4-yl]prop-2-enoic acid]
–	11.4	O=c1oc2ccccc2c(Nc2cc3ccccc3cc2O)c1[N+](=O)[O-] [3-nitro-4-[(3-oxidanylnaphthalen-2-yl)amino]chromen-2-one]
